For one data set, the target named is CYP9Q3 (Apis mellifera, UniProt A0A7M7LMV1). Briefly: in vitro. As to conditions: for metabolism by the recombinant P450 (in words): hydroxylation (thiacloprid, imidacloprid) or N-desmethylation (acetamiprid). An excerpt: (§1) All bee P450 (see Table S3 for accession numbers) and house fly NADPH-dependent cytochrome P450 reductase (CPR) (GenBank accession number Q07994) genes were obtained by gene synthesis (Geneart, CA, USA) and inserted into the pDEST8 expression vector (Invitrogen). Codon optimization of all bee genes was used to optimize expression in lepidopteran cell lines. The PFastbac1 vector with no inserted DNA was used to produce a control virus. The recombinant baculovirus DNA was constructed and transfected into Trichoplusia ni (High five cells, Thermo Fisher) using the Bac-to-Bac baculovirus expression system (Invitrogen) according to the manufacturer’s instructions. The titer of the recombinant virus was determined following protocols of the supplier. High Five cells grown to a density of 2 × 10^6 cells ml^-1 were co-infected with recombinant baculoviruses containing each bee P450 and CPR with a range of MOI (multiplicity of infection) ratios to identify the optimal conditions. Control cells were co-infected with the baculovirus containing vector with no insert (ctrl-virus) and the recombinant baculovirus expressing CPR using the same MOI ratios. Ferric citrate and δ-aminolevulinic acid hydrochloride were added to a final concentration of 0.1 mM at the time of infection and 24 h after infection to compensate the low levels of endogenous heme in the insect cells. After 48 h, cells were harvested, washed with PBS, and microsomes of the membrane fraction prepared according to standard procedures and stored at −80°C [31]. Briefly, pellets were homogenized for 30 s in 0.1M Na/K-phosphate buffer, pH 7.4 containing 1mM EDTA and DTT and 200mM sucrose using a Fastprep (MP Biomedicals), filtered through miracloth and centrifuging for 10 min at 680 g at 4°C. The supernatant was then centrifuged for 1 h at 100,000 g at 4°C, with the pellet subsequently resuspended in 0.1M Na/K-phosphate buffer, pH 7.6 containing 1mM EDTA and DTT and 10% glycerol using a Dounce tissue grinder. P450 expression and functionality was estimated by measuring CO-difference spectra in reduced samples using a Specord 200 Plus Spectrophotometer (Analytik Jena) and scanning from 500 nm to 400 nm. The protein content of samples was determined using Bradford reagent (Sigma) and bovine serum albumin (BSA) as a reference.
CYP9Q3, sequence (A0A7M7LMV1 entry or part of it, one chain of several): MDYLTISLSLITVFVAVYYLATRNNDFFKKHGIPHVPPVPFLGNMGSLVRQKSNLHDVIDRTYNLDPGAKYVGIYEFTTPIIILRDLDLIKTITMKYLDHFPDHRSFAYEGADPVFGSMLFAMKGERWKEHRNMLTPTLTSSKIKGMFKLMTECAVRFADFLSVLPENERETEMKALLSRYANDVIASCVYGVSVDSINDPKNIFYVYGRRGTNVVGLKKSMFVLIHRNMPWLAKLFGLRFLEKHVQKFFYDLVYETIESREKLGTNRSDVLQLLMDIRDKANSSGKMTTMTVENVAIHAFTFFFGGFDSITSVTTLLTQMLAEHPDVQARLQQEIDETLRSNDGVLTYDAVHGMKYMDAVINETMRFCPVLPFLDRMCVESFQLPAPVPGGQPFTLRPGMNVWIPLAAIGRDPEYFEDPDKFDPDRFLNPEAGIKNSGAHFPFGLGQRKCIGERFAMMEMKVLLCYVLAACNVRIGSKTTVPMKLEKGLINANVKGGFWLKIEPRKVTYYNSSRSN
(§2) The total assay volume was 200 μL using three replicates for each data point. Microsomes incubated without NADPH served as a control. The assay was stopped by the addition of ice-cold acetonitrile (to 80% final concentration), centrifuged for 10 min at 3000 g and the supernatant subsequently analyzed by tandem mass spectrometry as described previously. For the chromatography on a Waters Acquity HSS T3 column (2.1x50mm, 1.8μm), acetonitrile/water/0.1% formic acid was used as the eluent in gradient mode. […] The peak integrals were calibrated externally against a standard calibration curve. […] Substrate turnover from two independent reactions were plotted versus controls and Michaelis-Menten kinetics determined using GraphPad Prism version 7 (GraphPad Software, CA, USA).

The target of another data set is T1, CYP9Q2 (Apis mellifera, UniProt A0A7M7R6F2).
T1 sequence (A0A7M7R6F2 1-532): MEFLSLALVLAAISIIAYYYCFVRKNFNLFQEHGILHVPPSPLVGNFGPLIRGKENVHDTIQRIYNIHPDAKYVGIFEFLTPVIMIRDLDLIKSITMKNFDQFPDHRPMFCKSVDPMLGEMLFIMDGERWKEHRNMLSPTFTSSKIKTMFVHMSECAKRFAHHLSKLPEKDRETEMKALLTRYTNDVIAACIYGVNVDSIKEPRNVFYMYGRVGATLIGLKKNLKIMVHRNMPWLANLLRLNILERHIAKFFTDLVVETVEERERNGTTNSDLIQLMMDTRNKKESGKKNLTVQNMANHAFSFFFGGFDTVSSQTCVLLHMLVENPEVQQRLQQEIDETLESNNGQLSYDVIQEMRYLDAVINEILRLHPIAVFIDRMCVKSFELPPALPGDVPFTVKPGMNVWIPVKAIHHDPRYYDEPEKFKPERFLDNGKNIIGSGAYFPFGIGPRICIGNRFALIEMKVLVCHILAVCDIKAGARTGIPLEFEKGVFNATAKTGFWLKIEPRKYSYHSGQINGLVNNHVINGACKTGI
T1 sequence (Q07994 1-671 partner): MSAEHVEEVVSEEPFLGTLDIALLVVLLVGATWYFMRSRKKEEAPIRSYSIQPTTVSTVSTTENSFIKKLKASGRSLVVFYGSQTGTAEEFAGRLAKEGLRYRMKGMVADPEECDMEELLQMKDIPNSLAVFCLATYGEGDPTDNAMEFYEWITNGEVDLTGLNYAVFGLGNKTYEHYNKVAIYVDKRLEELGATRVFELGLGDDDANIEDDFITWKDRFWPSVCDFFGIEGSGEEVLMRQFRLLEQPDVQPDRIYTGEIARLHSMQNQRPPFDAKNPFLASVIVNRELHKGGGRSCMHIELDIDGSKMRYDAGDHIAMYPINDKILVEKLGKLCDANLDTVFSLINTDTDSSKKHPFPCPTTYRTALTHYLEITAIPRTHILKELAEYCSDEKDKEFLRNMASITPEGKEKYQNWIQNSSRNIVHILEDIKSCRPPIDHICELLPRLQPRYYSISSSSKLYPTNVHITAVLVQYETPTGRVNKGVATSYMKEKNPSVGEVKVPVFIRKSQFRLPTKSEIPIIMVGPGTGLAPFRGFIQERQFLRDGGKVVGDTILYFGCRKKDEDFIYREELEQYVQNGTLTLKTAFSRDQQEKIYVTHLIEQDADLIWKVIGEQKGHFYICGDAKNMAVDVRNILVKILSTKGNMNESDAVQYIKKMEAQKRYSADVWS
Briefly: in vitro. As to conditions: for metabolism by the recombinant P450 (in words): hydroxylation (thiacloprid, imidacloprid) or N-desmethylation (acetamiprid).
Excerpt: as §1, §2

The next data set has as its target CYP9Q1 (Apis mellifera, UniProt A0A7M7GTV9). Briefly: in vitro. As to conditions: for metabolism by the recombinant P450 (in words): hydroxylation (thiacloprid, imidacloprid) or N-desmethylation (acetamiprid).
Excerpt: as §1, §2

Another data set relates to Bombus terrestris. Briefly: Acute oral insecticide bioassay of bumble bees, with or without PBO. As to conditions: for increase in the sensitivity of bumble bees after treatment with PBO: oral bioassay, PBO pretreatment; for LD50: 48 hours after application. As for the experimental part: Acute contact insecticide assays were performed on female A. mellifera following standard methods OECD 2013 [30]. Bioassays of B. terrestris were based on the OECD guidelines developed for honeybees but with bees assayed in individual Nicot cages. Bees were starved of sucrose solution for up to 2 hr to encourage feeding during the experiment. […] Controls were fed a solution of sucrose containing a concentration of acetone matching that of the highest treatment concentration. After 4-6 hr the syringes were assessed to see if bees had consumed the insecticide-sucrose solution. Those that had not consumed all of the solution were excluded from the experiment. Mortality was assessed 48 hr after feeding and lethal concentrations (LC50 values) were calculated by probit analysis using Genstat version 16 (VSN International). For synergist bioassays, B. terrestris or A. mellifera workers were first treated with 20 μg of piperonyl butoxide or 1 μg of aminobenzotriazole applied to the dorsal thorax. Synergist bioassays included an additional control group treated only with the synergist. 1 hr after synergist application, bees were then treated with the appropriate insecticide dosage as above.

Setting [1] is: apparent value, mean ± SD (n=3), decimal commas.

Structures are written as SMILES.

CYP9Q1, sequence (A0A7M7GTV9 entry or part of it, one chain of several): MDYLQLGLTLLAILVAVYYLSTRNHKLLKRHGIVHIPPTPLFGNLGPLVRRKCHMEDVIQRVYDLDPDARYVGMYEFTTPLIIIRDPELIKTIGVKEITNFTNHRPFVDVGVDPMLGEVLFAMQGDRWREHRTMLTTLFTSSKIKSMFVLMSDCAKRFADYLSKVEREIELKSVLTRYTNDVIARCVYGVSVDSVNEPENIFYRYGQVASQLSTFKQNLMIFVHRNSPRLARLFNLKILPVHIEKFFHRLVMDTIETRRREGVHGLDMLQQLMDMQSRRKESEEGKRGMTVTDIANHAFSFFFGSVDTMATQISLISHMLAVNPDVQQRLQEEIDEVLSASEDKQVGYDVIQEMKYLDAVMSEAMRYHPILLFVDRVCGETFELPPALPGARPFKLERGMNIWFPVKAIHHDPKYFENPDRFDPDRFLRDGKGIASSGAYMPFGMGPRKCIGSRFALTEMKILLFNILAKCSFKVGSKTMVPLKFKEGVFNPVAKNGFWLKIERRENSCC

`O=[N+]([O-])NC1=NCCN1Cc1ccc(Cl)nc1` [imidacloprid]: the “metabolism by the recombinant P450 (in words)” value at CYP9Q3, at CYP9Q2 and on CYP9Q1 was “much lower efficiency than exhibited for thiacloprid” each time. In the data set on Bombus terrestris, the “increase in the sensitivity of bumble bees after treatment with PBO” value is given as “no significant shift”. For the same compound, in the data set with Bombus terrestris (oral, PBO versus no synergist), the “Synergism Ratio” value was determined as 1.2. Besides, the LD50 stood at 0.038 μg/bee in the data set on Bombus terrestris (oral, no synergist) and 0.032 μg/bee in the data set with Bombus terrestris (oral, synergist PBO).
Regarding `N#C/N=C1\SCCN1Cc1ccc(Cl)nc1` [thiacloprid], the values for the Km at 2 h on CYP9Q3 (Apis mellifera), at CYP9Q2 (Apis mellifera) and on CYP9Q1 (Apis mellifera) were 3.92 µM, 5.65 µM and 17.8 µM, respectively. Moreover, the “Vmax, thiacloprid hydroxylation” value is 607,8±5,48 pmol min-1 mg-1 on CYP9Q3 (setting [1]), 44,31±1,01 pmol min-1 mg-1 on CYP9Q2 (setting [1]) and 3,92 ±0,08 pmol min-1 mg-1 at CYP9Q1 (setting [1]). The “metabolism by the recombinant P450 (in words)” value is on record as “highly efficient metabolizer” at CYP9Q3, “weak activity” at CYP9Q2 and “weak activity” on CYP9Q1. Further, the “increase in the sensitivity of bumble bees after treatment with PBO” value in the data set with Bombus terrestris is reported as 4.2 fold. Besides, the LD50 was 19.68 μg/bee with Bombus terrestris (oral, no synergist) and 4.73 μg/bee in the data set on Bombus terrestris (oral, synergist PBO).

The values are drawn from PMC5887109, “Unravelling the Molecular Determinants of Bee Sensitivity to Neonicotinoid Insecticides” (Current Biology, 2018).
